From patent publication US4746349A, “Method and compositions for suppressing the nitrification of ammonium in plant growth medium” (American Cyanamid Company, priority 1986, dated 1988)
Structures can show the parent of a compound that is named as a salt.

Key:
Nitrobacter spp. = experiment: Nitrite nitrogen in ammonium amended soil incubated at 25° C.; conditions: soil 25° C., 200 ppm N
Experimental: Determination of nitrite nitrogen and nitrate nitrogen in soil prepared in Example 1 above, which is amended with 200 ppm of nitrogen as aqueous ammonium sulfate, […], is determined using the nitrite and nitrate analysis of the American Organization of Analytical Chemists (AOAC pp. 653-655).

Nitrosomonas spp. = experiment: Nitrification of ammonium in soil incubated at 25° C. (ammonium recovery, nitrate accumulation); conditions: soil 25° C.; for Concentration of nitrate nitrogen / Recovery of Ammonium Nitrogen: 200 ppm N
Experimental: In these evaluations, one hundred grams (100 g) of oven dry, silt loam field soil with low residual nitrogen is added to a 6×12 cm screw-capped glass jar for each sampling date to provide an optimum environment for nitrification.
Two replicates of each treatment-sampling date are established. The soil is adjusted to 50% water saturation with an aqueous solution of ammonium sulfate at 200 ppm N and the chemical to be tested as a nitrification inhibitor at rates of from 0.10 to 0.50 ppm.
Incubation is at either 25° C. or 38° C. for 0, 1, 2, 4, 7, 9, 12, 16 or 20 weeks. Inorganic N is extracted by adding 2M KCl (10:1 v/w) and shaking for one hour, allowing settling for fifteen minutes. A 10 ml aliquot from the supernatant is assayed for ammonium, nitrite and nitrate by standard steam distillation methods (AOAC, pp. 653-655). Nitrapyrin (0.5 ppm) is used as a nitrification inhibitor for comparison. Benzyl alcohol, acetone, and a non-N amended soil are run as controls and as a check on mineralization.
Nitrification: Ammonium recovery and nitrate accumulation are indicative of nitrification, and data obtained with test compounds are reported in Tables I and II.

## CC(C)=O [Acetone]
Nitrobacter spp.; 5%, week 0
  Concentration of nitrite nitrogen: 6 ppm
Nitrobacter spp.; 5%, week 1
  Concentration of nitrite nitrogen: 4 ppm
Nitrobacter spp.; 5%, week 2
  Concentration of nitrite nitrogen: -1 ppm
Nitrobacter spp.; 5%, week 4
  Concentration of nitrite nitrogen: 9 ppm
Nitrobacter spp.; 5%, week 7
  Concentration of nitrite nitrogen: 56 ppm
Nitrobacter spp.; 5%, week 9
  Concentration of nitrite nitrogen: 5 ppm
Nitrobacter spp.; 5%, week 12
  Concentration of nitrite nitrogen: 20 ppm
Nitrobacter spp.; 5%, week 16
  Concentration of nitrite nitrogen: 10 ppm
Nitrobacter spp.; 5%, week 20
  Concentration of nitrite nitrogen: 11 ppm
Nitrosomonas spp.; 5%
  Effect on nitrification, in words: initial rate of nitrification is slowed slightly
Nitrosomonas spp.; 5%, week 0
  Concentration of nitrate nitrogen: 19 PPM
  Recovery of Ammonium Nitrogen: 194 PPM
Nitrosomonas spp.; 5%, week 1
  Concentration of nitrate nitrogen: 7 PPM
  Recovery of Ammonium Nitrogen: 138 PPM
Nitrosomonas spp.; 5%, week 2
  Concentration of nitrate nitrogen: 0 PPM
  Recovery of Ammonium Nitrogen: 122 PPM
Nitrosomonas spp.; 5%, week 4
  Concentration of nitrate nitrogen: 36 PPM
  Recovery of Ammonium Nitrogen: 127 PPM
Nitrosomonas spp.; 5%, week 7
  Concentration of nitrate nitrogen: 75 PPM
  Recovery of Ammonium Nitrogen: 8 PPM
Nitrosomonas spp.; 5%, week 9
  Concentration of nitrate nitrogen: 100 PPM
  Recovery of Ammonium Nitrogen: 1 PPM
Nitrosomonas spp.; 5%, week 12
  Concentration of nitrate nitrogen: 155 PPM
  Recovery of Ammonium Nitrogen: 1 PPM
Nitrosomonas spp.; 5%, week 16
  Concentration of nitrate nitrogen: 165 PPM
  Recovery of Ammonium Nitrogen: 1 PPM

## CC[C@@H](C(=O)[C@@H](C)[C@@H](O)[C@H](C)CCc1ccc(C)c(O)c1C(=O)O)[C@H]1O[C@](CC)([C@H]2CC[C@](O)(CC)[C@H](C)O2)C[C@@H]1C [Lasalocid sodium salt, Lasalocid]
Nitrobacter spp.; 0.10 ppm, week 0
  Concentration of nitrite nitrogen: 8 ppm
Nitrobacter spp.; 0.10 ppm, week 1
  Concentration of nitrite nitrogen: 2 ppm
Nitrobacter spp.; 0.10 ppm, week 2
  Concentration of nitrite nitrogen: 1 ppm
Nitrobacter spp.; 0.10 ppm, week 4
  Concentration of nitrite nitrogen: 15 ppm
Nitrobacter spp.; 0.10 ppm, week 7
  Concentration of nitrite nitrogen: 12 ppm
Nitrobacter spp.; 0.10 ppm, week 9
  Concentration of nitrite nitrogen: 10 ppm
Nitrobacter spp.; 0.10 ppm, week 12
  Concentration of nitrite nitrogen: 5 ppm
Nitrobacter spp.; 0.10 ppm, week 16
  Concentration of nitrite nitrogen: 6 ppm
Nitrobacter spp.; 0.10 ppm, week 20
  Concentration of nitrite nitrogen: 11 ppm
Nitrobacter spp.; 0.25 ppm, week 0
  Concentration of nitrite nitrogen: 5 ppm
Nitrobacter spp.; 0.25 ppm, week 1
  Concentration of nitrite nitrogen: 0 ppm
Nitrobacter spp.; 0.25 ppm, week 2
  Concentration of nitrite nitrogen: 3 ppm
Nitrobacter spp.; 0.25 ppm, week 4
  Concentration of nitrite nitrogen: 2 ppm
Nitrobacter spp.; 0.25 ppm, week 7
  Concentration of nitrite nitrogen: 0 ppm
Nitrobacter spp.; 0.25 ppm, week 9
  Concentration of nitrite nitrogen: 3 ppm
Nitrobacter spp.; 0.25 ppm, week 12
  Concentration of nitrite nitrogen: 8 ppm
Nitrobacter spp.; 0.25 ppm, week 16
  Concentration of nitrite nitrogen: -1 ppm
Nitrobacter spp.; 0.25 ppm, week 20
  Concentration of nitrite nitrogen: 40 ppm
Nitrobacter spp.; 0.50 ppm, week 0
  Concentration of nitrite nitrogen: 7 ppm
Nitrobacter spp.; 0.50 ppm, week 1
  Concentration of nitrite nitrogen: 2 ppm
Nitrobacter spp.; 0.50 ppm, week 2
  Concentration of nitrite nitrogen: 6 ppm
Nitrobacter spp.; 0.50 ppm, week 4
  Concentration of nitrite nitrogen: 2 ppm
Nitrobacter spp.; 0.50 ppm, week 7
  Concentration of nitrite nitrogen: -4 ppm
Nitrobacter spp.; 0.50 ppm, week 9
  Concentration of nitrite nitrogen: 2 ppm
Nitrobacter spp.; 0.50 ppm, week 12
  Concentration of nitrite nitrogen: -11 ppm
Nitrobacter spp.; 0.50 ppm, week 16
  Concentration of nitrite nitrogen: 7 ppm
Nitrobacter spp.; 0.50 ppm, week 20
  Concentration of nitrite nitrogen: 7 ppm
Nitrosomonas spp.; 0.10 ppm, week 0
  Concentration of nitrate nitrogen: 19 PPM
  Recovery of Ammonium Nitrogen: 194 PPM
Nitrosomonas spp.; 0.10 ppm, week 1
  Concentration of nitrate nitrogen: 21 PPM
  Recovery of Ammonium Nitrogen: 177 PPM
Nitrosomonas spp.; 0.10 ppm, week 2
  Concentration of nitrate nitrogen: 41 PPM
  Recovery of Ammonium Nitrogen: 143 PPM
Nitrosomonas spp.; 0.10 ppm, week 4
  Concentration of nitrate nitrogen: 90 PPM
  Recovery of Ammonium Nitrogen: 109 PPM
Nitrosomonas spp.; 0.10 ppm, week 7
  Concentration of nitrate nitrogen: 197 PPM
  Recovery of Ammonium Nitrogen: 7 PPM
Nitrosomonas spp.; 0.10 ppm, week 9
  Concentration of nitrate nitrogen: 219 PPM
  Recovery of Ammonium Nitrogen: 0 PPM
Nitrosomonas spp.; 0.10 ppm, week 12
  Concentration of nitrate nitrogen: 220 PPM
  Recovery of Ammonium Nitrogen: 8 PPM
Nitrosomonas spp.; 0.10 ppm, week 16
  Concentration of nitrate nitrogen: 223 PPM
  Recovery of Ammonium Nitrogen: 3 PPM
Nitrosomonas spp.; 0.1 to 0.5 ppm
  Specific inhibition of nitrification through activity against Nitrosomonas spp., in words: appear to specifically inhibit nitrification through activity against Nitrosomonas spp.
Nitrosomonas spp.; 0.25 ppm, week 0
  Concentration of nitrate nitrogen: 18 PPM
  Recovery of Ammonium Nitrogen: 194 PPM
Nitrosomonas spp.; 0.25 ppm, week 1
  Concentration of nitrate nitrogen: 21 PPM
  Recovery of Ammonium Nitrogen: 184 PPM
Nitrosomonas spp.; 0.25 ppm, week 2
  Concentration of nitrate nitrogen: 18 PPM
  Recovery of Ammonium Nitrogen: 186 PPM
Nitrosomonas spp.; 0.25 ppm, week 4
  Concentration of nitrate nitrogen: 28 PPM
  Recovery of Ammonium Nitrogen: 197 PPM
Nitrosomonas spp.; 0.25 ppm, week 7
  Concentration of nitrate nitrogen: 26 PPM
  Recovery of Ammonium Nitrogen: 194 PPM
Nitrosomonas spp.; 0.25 ppm, week 9
  Concentration of nitrate nitrogen: 68 PPM
  Recovery of Ammonium Nitrogen: 147 PPM
Nitrosomonas spp.; 0.25 ppm, week 12
  Concentration of nitrate nitrogen: 46 PPM
  Recovery of Ammonium Nitrogen: 180 PPM
Nitrosomonas spp.; 0.25 ppm, week 16
  Concentration of nitrate nitrogen: 158 PPM
  Recovery of Ammonium Nitrogen: 78 PPM
Nitrosomonas spp.; 0.25 ppm, week 20
  Concentration of nitrate nitrogen: 154 PPM
  Recovery of Ammonium Nitrogen: 44 PPM
Nitrosomonas spp.; 0.50 ppm, week 0
  Concentration of nitrate nitrogen: 18 PPM
  Recovery of Ammonium Nitrogen: 195 PPM
Nitrosomonas spp.; 0.50 ppm, week 1
  Concentration of nitrate nitrogen: 18 PPM
  Recovery of Ammonium Nitrogen: 169 PPM
Nitrosomonas spp.; 0.50 ppm, week 2
  Concentration of nitrate nitrogen: 14 PPM
  Recovery of Ammonium Nitrogen: 168 PPM
Nitrosomonas spp.; 0.50 ppm, week 4
  Concentration of nitrate nitrogen: 18 PPM
  Recovery of Ammonium Nitrogen: 173 PPM
Nitrosomonas spp.; 0.50 ppm, week 7
  Concentration of nitrate nitrogen: 18 PPM
  Recovery of Ammonium Nitrogen: 199 PPM
Nitrosomonas spp.; 0.50 ppm, week 9
  Concentration of nitrate nitrogen: 17 PPM
  Recovery of Ammonium Nitrogen: 202 PPM
Nitrosomonas spp.; 0.50 ppm, week 12
  Concentration of nitrate nitrogen: 20 PPM
  Recovery of Ammonium Nitrogen: 215 PPM
Nitrosomonas spp.; 0.50 ppm, week 16
  Concentration of nitrate nitrogen: 52 PPM
  Recovery of Ammonium Nitrogen: 175 PPM
Nitrosomonas spp.; 0.50 ppm, week 20
  Concentration of nitrate nitrogen: 26 PPM
  Recovery of Ammonium Nitrogen: 135 PPM
